Assays:
[1] = molecular target: T1, Muscarinic acetylcholine receptor M2 (Homo sapiens, UniProt P08172); test: Displacement of [3H]NMS from human recombinant muscarinic receptor M2 expressed in CHO-K9 cell membranes measured after 3 hrs by radioligand competition binding assay; set-up: species or system Membrane
[2] = molecular target: T2, Muscarinic acetylcholine receptor M1 (Homo sapiens, UniProt P11229); test: Displacement of [3H]NMS from human recombinant muscarinic receptor M1 expressed in CHO-K9 cell membranes measured after 3 hrs by radioligand competition binding assay; set-up: species or system Membrane
T2 sequence (P11229 whole entry): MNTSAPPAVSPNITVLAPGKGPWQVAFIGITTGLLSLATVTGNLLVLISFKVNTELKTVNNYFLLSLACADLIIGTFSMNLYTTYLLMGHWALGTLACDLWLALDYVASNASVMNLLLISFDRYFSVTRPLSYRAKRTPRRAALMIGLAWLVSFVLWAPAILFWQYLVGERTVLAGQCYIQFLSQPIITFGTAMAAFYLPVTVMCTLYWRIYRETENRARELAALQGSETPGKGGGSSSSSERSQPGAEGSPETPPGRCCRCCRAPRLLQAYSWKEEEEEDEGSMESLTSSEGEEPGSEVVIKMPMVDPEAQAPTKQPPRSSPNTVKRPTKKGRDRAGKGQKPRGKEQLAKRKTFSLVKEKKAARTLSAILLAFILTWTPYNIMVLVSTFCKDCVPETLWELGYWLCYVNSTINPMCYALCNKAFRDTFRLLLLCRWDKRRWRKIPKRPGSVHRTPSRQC

[3] = molecular target: T3, Muscarinic acetylcholine receptor M4 (Homo sapiens, UniProt P08173); test: Displacement of [3H]-NMS from muscarinic M4 receptor (unknown origin) expressed in NG108-15 cells by scintillation counting analysis; type: cell-based
T3 sequence (P08173 whole entry): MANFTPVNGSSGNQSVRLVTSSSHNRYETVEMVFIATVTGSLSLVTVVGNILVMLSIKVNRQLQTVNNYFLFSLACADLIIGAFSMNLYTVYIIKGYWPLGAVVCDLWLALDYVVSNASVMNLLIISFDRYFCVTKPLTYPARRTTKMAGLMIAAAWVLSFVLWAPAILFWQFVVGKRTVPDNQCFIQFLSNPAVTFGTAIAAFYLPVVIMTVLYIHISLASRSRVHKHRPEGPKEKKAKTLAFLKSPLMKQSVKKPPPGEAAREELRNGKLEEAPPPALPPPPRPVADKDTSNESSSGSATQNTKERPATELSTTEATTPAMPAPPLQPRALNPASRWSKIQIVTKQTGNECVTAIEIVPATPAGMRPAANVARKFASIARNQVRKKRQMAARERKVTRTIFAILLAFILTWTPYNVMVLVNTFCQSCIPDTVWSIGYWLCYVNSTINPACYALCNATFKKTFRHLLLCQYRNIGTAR

[4] = molecular target: T1, Muscarinic acetylcholine receptor M2; test: Displacement of [3H]-NMS from muscarinic M2 receptor (unknown origin) expressed in A9 cells by scintillation counting analysis; type: cell-based
[5] = molecular target: Muscarinic acetylcholine receptor M3 (Homo sapiens, UniProt P20309); test: Displacement of [3H]NMS from human recombinant muscarinic receptor M3 expressed in CHO-K9 cell membranes measured after 3 hrs by radioligand competition binding assay; set-up: species or system Membrane
Muscarinic acetylcholine receptor M3, sequence (P20309 whole entry): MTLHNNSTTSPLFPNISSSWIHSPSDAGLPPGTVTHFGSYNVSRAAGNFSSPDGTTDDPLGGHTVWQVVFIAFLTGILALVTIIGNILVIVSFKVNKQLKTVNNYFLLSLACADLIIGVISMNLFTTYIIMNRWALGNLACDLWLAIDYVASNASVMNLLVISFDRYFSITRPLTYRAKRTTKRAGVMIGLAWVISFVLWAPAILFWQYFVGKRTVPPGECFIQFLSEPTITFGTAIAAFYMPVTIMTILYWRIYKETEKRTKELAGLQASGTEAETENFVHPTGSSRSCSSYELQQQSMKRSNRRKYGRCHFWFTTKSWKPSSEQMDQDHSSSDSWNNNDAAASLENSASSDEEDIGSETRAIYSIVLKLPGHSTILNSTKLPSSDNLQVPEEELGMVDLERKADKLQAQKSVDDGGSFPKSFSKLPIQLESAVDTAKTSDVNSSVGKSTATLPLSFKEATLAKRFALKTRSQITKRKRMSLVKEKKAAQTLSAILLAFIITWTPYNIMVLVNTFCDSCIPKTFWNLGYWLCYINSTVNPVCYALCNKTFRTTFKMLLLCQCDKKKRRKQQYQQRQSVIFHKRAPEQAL

[6] = molecular target: T4, Muscarinic acetylcholine receptor M5 (Homo sapiens, UniProt P08912); test: Displacement of [3H]NMS from human recombinant muscarinic receptor M5 expressed in CHO-K9 cell membranes measured after 3 hrs by radioligand competition binding assay; set-up: species or system Membrane
T4 sequence (P08912 whole entry): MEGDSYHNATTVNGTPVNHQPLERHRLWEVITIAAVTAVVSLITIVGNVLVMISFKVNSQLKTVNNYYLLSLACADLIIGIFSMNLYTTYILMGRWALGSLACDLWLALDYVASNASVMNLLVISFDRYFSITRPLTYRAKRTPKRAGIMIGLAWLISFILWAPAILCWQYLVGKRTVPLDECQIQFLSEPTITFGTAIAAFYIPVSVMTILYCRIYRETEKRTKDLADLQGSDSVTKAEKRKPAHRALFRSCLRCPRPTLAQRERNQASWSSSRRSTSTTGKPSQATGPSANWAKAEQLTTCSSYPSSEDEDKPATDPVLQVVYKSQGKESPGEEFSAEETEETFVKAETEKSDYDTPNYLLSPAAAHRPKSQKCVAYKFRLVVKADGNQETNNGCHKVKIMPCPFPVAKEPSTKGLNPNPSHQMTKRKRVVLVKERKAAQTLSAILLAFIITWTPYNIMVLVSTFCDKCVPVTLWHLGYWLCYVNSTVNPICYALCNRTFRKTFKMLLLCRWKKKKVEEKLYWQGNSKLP

[7] = molecular target: T5, Muscarinic acetylcholine receptor M2 (Homo sapiens, UniProt P08172); test: Binding affinity to human muscarinic M2 receptor expressed in CHO-K9 cells assessed as unspecific binding at Kd incubated in dark at 22 degree C for 2 hrs in presence of atropine by FACSCantoII flow cytometric saturation binding study relative to control; type: cell-based
T5 sequence (P08172 whole entry): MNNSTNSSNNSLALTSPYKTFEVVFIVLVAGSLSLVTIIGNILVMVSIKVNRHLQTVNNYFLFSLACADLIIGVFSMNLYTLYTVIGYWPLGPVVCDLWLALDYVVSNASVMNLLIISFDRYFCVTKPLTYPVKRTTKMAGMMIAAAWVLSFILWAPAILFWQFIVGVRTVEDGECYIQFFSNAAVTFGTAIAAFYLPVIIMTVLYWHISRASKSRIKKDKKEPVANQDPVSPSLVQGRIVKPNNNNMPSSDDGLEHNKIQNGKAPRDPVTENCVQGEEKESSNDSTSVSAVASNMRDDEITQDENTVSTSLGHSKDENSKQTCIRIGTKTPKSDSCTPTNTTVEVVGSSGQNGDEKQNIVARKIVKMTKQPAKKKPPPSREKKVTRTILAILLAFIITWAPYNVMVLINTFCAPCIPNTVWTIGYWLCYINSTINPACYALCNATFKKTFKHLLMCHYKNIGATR

[8] = molecular target: T3, Muscarinic acetylcholine receptor M4; test: Displacement of [3H]NMS from human recombinant muscarinic receptor M4 expressed in CHO-K9 cell membranes measured after 3 hrs by radioligand competition binding assay; set-up: species or system Membrane
[9] = molecular target: T5, Muscarinic acetylcholine receptor M2; test: Binding affinity to human muscarinic M2 receptor expressed in CHO-K9 cells assessed as unspecific binding at Kd incubated in dark at 22 degree C for 2 hrs in presence of atropine by FACSCalibur flow cytometric saturation binding study relative to control; type: cell-based

Ki [1] | Ki [2] | Ki [3] | Ki [4] | Ki [5] | Ki [6] | Kd ([7]; read-out: Kd) | Ki [8] | Kd ([7]; read-out: pKd (converted)) | Kd ([9]; read-out: Kd) | Kd ([9]; read-out: pKd (converted)) | SMILES
1.58 nM | 0.501 nM | – | – | – | – | – | – | – | – | – | Cc1scc2c1N(C(=O)CN1CCN(CCCCCCCCCCNC(=O)c3ccc(-c4c5ccc(=N)c(S(=O)(=O)O)c-5oc5c(S(=O)(=O)O)c(N)ccc45)c(C(=O)O)c3)CC1)c1ccccc1NC2=O
– | – | 2 nM | 0.316 nM | – | – | – | – | – | – | – | CCN(CC)CCCCC1CCN(CC(=O)N2c3ccccc3NC(=O)c3ccccc32)CC1
0.912 nM | 4.9 nM | – | – | 85.1 nM | 70.8 nM | 2 nM | 4.27 nM | – | – | – | Cc1cc(/C=C/C=C/c2ccc(N(C)C)cc2)cc(C)[n+]1CCNC(=O)CCc1cn(CCCCC2CCN(CC(=O)N3c4ccccc4NC(=O)c4ccccc43)CC2)cn1
0.0398 nM | 0.0316 nM | – | – | – | – | – | – | – | – | – | Cc1scc2c1N(C(=O)CN1CCN(CCCCCCCCCCNC(=O)Cc3ccc4c(c3)C(C)(C)C3=C5C=C6C7=[N+](CCC6OC5CCN34)c3ccc(S(=O)(=O)[O-])cc3C7(C)C)CC1)c1ccccc1NC2=O (stereo not given)
1.78 nM | 6.17 nM | – | – | 129 nM | 275 nM | 2.4 nM | 3.72 nM | 4.37 nM | – | – | CN(C)c1ccc2c(-c3ccc(C(=O)NCCNC(=O)CCc4cn(CCCCC5CCN(CC(=O)N6c7ccccc7NC(=O)c7ccccc76)CC5)cn4)cc3C(=O)[O-])c3ccc(=[N+](C)C)cc-3oc2c1
0.24 nM | 2.57 nM | – | – | 81.3 nM | 178 nM | – | 0.977 nM | – | 0.6 nM | 1.38 nM | CN(C)c1ccc2c(-c3ccc(C(=O)NCCN4CCN(CCCCC5CCN(CC(=O)N6c7ccccc7NC(=O)c7ccccc76)CC5)CC4)cc3C(=O)[O-])c3ccc(=[N+](C)C)cc-3oc2c1
0.955 nM | 4.79 nM | – | – | 63.1 nM | 126 nM | 1.9 nM | 2.69 nM | 0.646 nM | – | – | Cc1cc(/C=C/c2cc3c4c(c2)CCCN4CCC3)cc(C)[n+]1CCN1CCN(CCCCC2CCN(CC(=O)N3c4ccccc4NC(=O)c4ccccc43)CC2)CC1
– | – | – | – | – | – | 1.4 nM | – | 2.34 nM | – | – | Cc1cc(/C=C/C=C/c2ccc(N(C)C)cc2)cc(C)[n+]1CCN1CCN(CCCCC2CCN(CC(=O)N3c4ccccc4NC(=O)c4ccccc43)CC2)CC1
0.692 nM | 1 nM | – | – | 37.2 nM | 10 nM | 4.5 nM | 0.417 nM | 3.89 nM | – | – | O=C(CCCCCNC(=O)COc1ccc(/C=C/C2=[N+]3C(=Cc4ccc(-c5cccs5)n4[B-]3(F)F)C=C2)cc1)NCCNC(=O)CCc1cn(CCCCC2CCN(CC(=O)N3c4ccccc4NC(=O)c4ccccc43)CC2)cn1
1.35 nM | 7.08 nM | – | – | 69.2 nM | 40.7 nM | 3.8 nM | 2.63 nM | 2 nM | – | – | Cc1cc(/C=C/c2cc3c4c(c2)CCCN4CCC3)cc(C)[n+]1CCNC(=O)CCc1cn(CCCCC2CCN(CC(=O)N3c4ccccc4NC(=O)c4ccccc43)CC2)cn1
0.562 nM | – | – | – | – | – | – | – | – | – | – | NCCN1CCN(CCCCC2CCN(CC(=O)N3c4ccccc4NC(=O)c4ccccc43)CC2)CC1

— ChEMBL document CHEMBL4715686, “Differently fluorescence-labelled dibenzodiazepinone-type muscarinic acetylcholine receptor ligands with high M2R affinity” (RSC Med Chem, 2020)
